Target: T1, native pig P2X2/3Rs in DRG neurons (Sus scrofa, UniProt F1RI70+I3L7H5)
T1 sequence (I3L7H5 1-397): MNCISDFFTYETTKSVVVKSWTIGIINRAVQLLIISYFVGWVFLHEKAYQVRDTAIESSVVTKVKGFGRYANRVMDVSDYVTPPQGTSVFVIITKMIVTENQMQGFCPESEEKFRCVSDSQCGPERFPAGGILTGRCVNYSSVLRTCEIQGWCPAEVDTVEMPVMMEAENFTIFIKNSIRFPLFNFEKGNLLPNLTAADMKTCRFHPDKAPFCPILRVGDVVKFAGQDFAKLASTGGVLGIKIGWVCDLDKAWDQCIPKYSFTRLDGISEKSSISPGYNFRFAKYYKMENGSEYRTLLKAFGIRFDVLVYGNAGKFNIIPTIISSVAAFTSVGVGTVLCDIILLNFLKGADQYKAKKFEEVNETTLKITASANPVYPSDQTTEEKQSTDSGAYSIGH
T1 sequence (F1RI70 1-417): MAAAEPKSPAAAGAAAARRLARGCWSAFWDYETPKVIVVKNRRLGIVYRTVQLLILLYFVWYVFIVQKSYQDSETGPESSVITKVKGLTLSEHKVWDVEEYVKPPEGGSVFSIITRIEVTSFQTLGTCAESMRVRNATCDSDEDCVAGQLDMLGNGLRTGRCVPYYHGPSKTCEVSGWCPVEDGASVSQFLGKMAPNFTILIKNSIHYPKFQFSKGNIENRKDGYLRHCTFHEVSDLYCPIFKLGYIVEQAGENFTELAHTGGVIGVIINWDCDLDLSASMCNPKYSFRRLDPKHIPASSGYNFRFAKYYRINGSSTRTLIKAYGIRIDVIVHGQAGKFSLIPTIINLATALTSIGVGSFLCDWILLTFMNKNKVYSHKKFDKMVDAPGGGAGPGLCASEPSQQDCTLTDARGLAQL
Assay: Whole-cell patch-clamp of α,β-meATP-induced currents in pig DRG neurons

[1] = 100 µM diclofenac, 10 µM α,β-meATP, n = 11

Protocol: For this purpose, pigs of the German Landrace breed, with an average age of 15 weeks (14.6 SD2.7) and weight of 47.3 kg (SD11.2), were euthanized using an overdose of pentobarbital 60 mg/kg body weight. Subsequently, the DRG were collected. The DRG of pigs were transferred on ice, and fine excision was performed in ice-cold DMEM F12 medium containing 10% FBS and treated with 1 mg/ml collagenase P, 1 mg/ml trypsin T1426, and 0.1 mg/ml DNAse for digestion. Then, the DRG were cut into small pieces inside the digestion medium for surface enlargement and incubated at 37°C and 5% CO2 for 120 ±30 min. After approximately 60 min in the digestion medium, the DRG were triturated using a glass pipette. After the full incubation time, they were triturated thrice using custom-pulled glass pipettes with decreasing tip diameters (from ∼1.1–1.2 to ∼0.3–0.4 mm). For further purification, the DRG were centrifuged at 500 G and 4°C twice for 4 minutes each, and the pellets were suspended in DMEM F12 with 10% FBS. They were subsequently separated from lighter cell fragments and myelin by centrifugation of a Percoll gradient containing a 60% Percoll and a 25% Percoll gradient for 20 min at 500 G. DRG neurons were plated on coverslips coated with poly-D-lysine (100 μg/ml), laminin (10 μg/ml), and fibronectin (10 μg/ml). Neurons were then cultured in neurobasal A medium supplemented with B27, penicillin, streptomycin, and L-glutamine and used for voltage-clamp recordings after 12–72 h in culture.
Whole-cell voltage-clamp recordings of DRG neurons were performed using glass electrodes with micropipette tip resistances of 1.3–3.5 MΩ, pulled and fire-polished with a Zeitz DMZ-puller. The intracellular solution contained 10 mM NaCl, 140 mM CsF, 10 mM HEPES, 1 mM EGTA, 5 mM glucose, and 5 mM TEA-Cl (adjusted to pH 7.3 using CsOH). The extracellular bathing solution contained 140 mM NaCl, 3 mM KCl, 1 mM MgCl2, 1 mM CaCl2, 10 mM HEPES, and 20 mM glucose (adjusted to pH 7.4 using NaOH). The liquid junction potential was corrected by −7.8 mV. […]

SMILES: O=C(O)Cc1ccccc1Nc1c(Cl)cccc1Cl [Diclofenac, diclofenac]
- mean block ± SD, fourth application vs. mean of third and fifth application [1]: 70.9 ± 37.2%
- mean block ± SD, fourth application vs. preceding third application [1]: 70.2 ± 34.3%
- inhibition at 100 µM (DRG neuron, read-out: inhibition of α,β-meATP-elicited whole-cell currents by 100 µM diclofenac): 70.5%

Reference: PMC10060569 (Frontiers in Pharmacology, 2023)
